# Reference: US20230256007A1 (priority 2022, published 2023)
# System: patient with sequelae of coronavirus pneumonia (omicron variant of coronavirus)
# Conditions: human, in vivo
structure (smiles),measurement,value
"[HH] [hydrogen gas, hydrogen]",Daily headache and migraine that occurred several times a day,relieved
same,"Generalized pain, difficulty breathing, feeling of faintness, malaise, fatigue after exertion, sleeping disorder, low-grade fever, bradycardia, blood pressure drop",continues to alleviate symptoms
same,State of pulmonary fibrosis,improving
same,Time after which sleeping disorder improved,about 3 days
